Drawing on patent EP2518054A1, “AMIDE COMPOUND” (Takeda Pharmaceutical Company Limited, priority 2009, dated 2011), this text covers activity and EC50 for 29 molecules.

Broadly, the EC50 is the midpoint of the concentration-response curve.

T1 sequence (Q9Y2T5 whole entry): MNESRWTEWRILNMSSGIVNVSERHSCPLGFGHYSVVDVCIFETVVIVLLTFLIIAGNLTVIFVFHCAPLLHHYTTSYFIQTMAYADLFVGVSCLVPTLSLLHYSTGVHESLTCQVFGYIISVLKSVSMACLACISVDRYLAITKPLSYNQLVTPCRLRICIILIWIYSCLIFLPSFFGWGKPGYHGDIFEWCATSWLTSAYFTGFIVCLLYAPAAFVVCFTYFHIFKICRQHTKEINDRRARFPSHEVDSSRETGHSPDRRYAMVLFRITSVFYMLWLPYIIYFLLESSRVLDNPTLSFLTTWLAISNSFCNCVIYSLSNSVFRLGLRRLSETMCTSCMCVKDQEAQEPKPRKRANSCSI

The first assay concerns the target T1, human GPR52 (Homo sapiens, UniProt Q9Y2T5).
T1 construct: expressed in transfected cells; host or cells: CHO(dhfr-) cells
Put plainly: Increase of intracellular cAMP concentration in human GPR52-expressing CHO cell (AlphaScreen cAMP assay). Format: cell-based. The conditions noted are these: CHO, 1µM test compound; 100% = cAMP with 1 µM Reference Example 79, 0% = DMSO; human GPR52-expressing CHO(dhfr-) cells, 37°C, 30 min; read-out: GPR52 agonist activity (%). Here is the method:
Increase of intracellular cAMP concentration in human GPR52-expressing CHO cell
Using OptiPlate-384 (PerkinElmer Inc.), 1×10^4 human GPR52-expressing CHO(dhfr-) cells were incubated together with various concentration(10^-5µM - 10µm) of a test compound in an assay buffer (30 µL, HBSS (containing Ca^2+ and Mg^2+), 0.5% BSA, 100 µM IBMX, 100 µM Ro20-1724, 5 mM HEPES (pH 7.55)) at 37°C for 30 min. Thereafter, according to the protocol of AlphaScreen CAMP Assay Kit (PerkinElmer Inc.), the intracellular cAMP concentration was measured by EnVision (PerkinElmer Inc.). The GPR52 agonist activity was calculated, assuming the intracellular cAMP concentration in the presence of […] N-(2-hydroxyethyl)-3-[2-[3-(trifluoromethyl)benzyl]-1-benzofuran-4-yl]benzamide (Reference Example 79) to be 100% and assuming the intracellular cAMP concentration when DMSO was added instead of the test compound to be 0%.
In the case of `Cc1c(C(=O)NCCO)c(CO)nn1-c1cccc2cc(Cc3cccc(C(F)(F)F)c3)sc12` [Example 67, N-(2-hydroxyethyl)-3-(hydroxymethyl)-5-methyl-1-[2-[3-(trifluoromethyl)benzyl]-1-benzothiophen-7-yl]-1H-pyrazole-4-carboxamide], the activity at 1 µM worked out at 83%. As to `Cc1nn(-c2cccc3cc(Cc4cc(F)cc(Cl)c4)sc23)c(C)c1C(=O)NCC(N)=O` [Example 55, N-(2-amino-2-oxoethyl)-1-[2-(3-chloro-5-fluorobenzyl)-1-benzothiophen-7-yl]-3,5-dimethyl-1H-pyrazole-4-carboxamide], the activity at 1 µM came out at 96%. As to `Cc1nn(-c2cccc3cc(Cc4cccc(C(F)(F)F)c4)sc23)c(C)c1C(N)=O` [Example 54, 3,5-dimethyl-1-[2-[3-(trifluoromethyl)benzyl]-1-benzothiophen-7-yl]-1H-pyrazole-4-carboxamide], the activity at 1 µM was determined as 101%. For `Cc1nc(-c2cccc3cc(Cc4cccc(C(F)(F)F)c4)sc23)n(C)c1C(=O)NCC(N)=O` [Example 47, N-(2-amino-2-oxoethyl)-1,4-dimethyl-2-[2-[3-(trifluoromethyl)benzyl]-1-benzothiophen-7-yl]-1H-imidazole-5-carboxamide], the activity at 1 µM turned out to be 93%. Still for that read-out and setting: the result for `Cc1c(C(N)=O)nc(-c2cccc3cc(Cc4cccc(C(F)(F)F)c4)sc23)n1C` [Example 50, 1,5-dimethyl-2-[2-[3-(trifluoromethyl)benzyl]-1-benzothiophen-7-yl]-1H-imidazole-4-carboxamide] reads 79%. On the same count and under the same terms, next, `Cc1nn(-c2cccc3nn(Cc4cccc(C(F)(F)F)c4)cc23)c(C)c1C(N)=O` [Example 78, 3,5-dimethyl-1-[2-[3-(trifluoromethyl)benzyl]-2H-indazol-4-yl]-1H-pyrazole-4-carboxamide]: 104%; `Cc1nn(-c2cccc3sc(Cc4cccc(C(F)(F)F)c4)cc23)c(C)c1C(N)=O` [Example 104, 3,5-dimethyl-1-[2-[3-(trifluoromethyl)benzyl]-1-benzothiophen-4-yl]-1H-pyrazole-4-carboxamide]: 93%.

Turning to `O=C(NCCO)c1cn(-c2cccc3cc(Cc4cccc(C(F)(F)F)c4)sc23)nc1C(F)(F)F` [Example 20, N-(2-hydroxyethyl)-3-(trifluoromethyl)-1-[2-[3-(trifluoromethyl)benzyl]-1-benzothiophen-7-yl]-1H-pyrazole-4-carboxamide], the activity at 1 µM worked out at 79%. `Cc1nn(-c2cccc3sc(Cc4cc(F)cc(Cl)c4)cc23)c(C)c1C(=O)NCCO` [Example 108, 1-[2-(3-chloro-5-fluorobenzyl)-1-benzothiophen-4-yl]-N-(2-hydroxyethyl)-3,5-dimethyl-1H-pyrazole-4-carboxamide]: the activity at 1 µM is 93%.

Regarding `Cc1nn(-c2cccc3nn(Cc4cc(F)cc(C(F)(F)F)c4)cc23)c(C)c1C(N)=O` [Example 83, 1-[2-[3-fluoro-5-(trifluoromethyl)benzyl]-2H-indazol-4-yl]-3,5-dimethyl-1H-pyrazole-4-carboxamide], the activity at 1 µM is 104%.

Regarding `Cc1nn(-c2ccc(F)c3cc(Cc4cccc(C(F)(F)F)c4)sc23)c(CO)c1C(N)=O` [Example 73, 1-[4-fluoro-2-[3-(trifluoromethyl)benzyl]-1-benzothiophen-7-yl]-5-(hydroxymethyl)-3-methyl-1H-pyrazole-4-carboxamide], the activity at 1 µM was determined as 97%.

As for `Cc1nc(-c2cccc3cc(Cc4cccc(C(F)(F)F)c4)sc23)sc1C(=O)NCCC#N` [Example 38, N-(2-cyanoethyl)-4-methyl-2-[2-[3-(trifluoromethyl)benzyl]-1-benzothiophen-7-yl]-1,3-thiazole-5-carboxamide], the activity at 1 µM amounted to 101%.

On to `O=C(NCCO)c1sc(-c2cccc3cc(Cc4cccc(C(F)(F)F)c4)sc23)nc1C(F)(F)F` [Example 87, N-(2-hydroxyethyl)-4-(trifluoromethyl)-2-[2-[3-(trifluoromethyl)benzyl]-1-benzothiophen-7-yl]-1,3-thiazole-5-carboxamide], for which the activity at 1 µM was 92%. On to `COc1cc(Cc2cc3cccc(-n4nc(C)c(C(=O)NCCO)c4C)c3s2)ccc1F` [Example 97, 1-[2-(4-fluoro-3-methoxybenzyl)-1-benzothiophen-7-yl]-N-(2-hydroxyethyl)-3,5-dimethyl-1H-pyrazole-4-carboxamide], for which the activity at 1 µM worked out at 94%. The same measure, in the same setting: the result for `Cc1nc(-c2cccc3cc(Cc4cccc(C(F)(F)F)c4)sc23)oc1C(=O)NCC(N)=O` [Example 11, N-(2-amino-2-oxoethyl)-4-methyl-2-[2-[3-(trifluoromethyl)benzyl]-1-benzothiophen-7-yl]-1,3-oxazole-5-carboxamide] reads 70%; that for `O=C(NCCO)c1cn(-c2cccc3cc(Cc4cccc(C(F)(F)F)c4)sc23)nc1C1CC1` [Example 29, 3-cyclopropyl-N-(2-hydroxyethyl)-1-[2-[3-(trifluoromethyl)benzyl]-1-benzothiophen-7-yl]-1H-pyrazole-4-carboxamide], 97%.

With `Cc1nc(-c2cccc3oc(Cc4cccc(C(F)(F)F)c4)cc23)sc1C(N)=O` [Example 44, 4-methyl-2-[2-[3-(trifluoromethyl)benzyl]-1-benzofuran-4-yl]-1,3-thiazole-5-carboxamide], the activity at 1 µM came out at 92%.

With `Cc1nn(-c2cccc3cc(Cc4cccc(C(F)(F)F)c4)sc23)c(C)c1C(=O)NCCO` [Example 52, N-(2-hydroxyethyl)-3,5-dimethyl-1-[2-[3-(trifluoromethyl)benzyl]-1-benzothiophen-7-yl]-1H-pyrazole-4-carboxamide], the activity at 1 µM was 107%. Same read-out and setting: next, `Cc1cc(C(=O)NCC(N)=O)n(-c2cccc3cc(Cc4cccc(C(F)(F)F)c4)sc23)n1` [Example 31, N-(2-amino-2-oxoethyl)-3-methyl-1-[2-[3-(trifluoromethyl)benzyl]-1-benzothiophen-7-yl]-1H-pyrazole-5-carboxamide]: 84%; `Cc1cc(C(=O)NCCO)n(-c2cccc3cc(Cc4cccc(C(F)(F)F)c4)sc23)n1` [Example 33, N-(2-hydroxyethyl)-3-methyl-1-[2-[3-(trifluoromethyl)benzyl]-1-benzothiophen-7-yl]-1H-pyrazole-5-carboxamide]: 79%. Turning to `Cc1nn(-c2cccc3sc(Cc4cccc(C(F)(F)F)c4)cc23)c(C)c1C(=O)NCCO` [Example 106, N-(2-hydroxyethyl)-3,5-dimethyl-1-[2-[3-(trifluoromethyl)benzyl]-1-benzothiophen-4-yl]-1H-pyrazole-4-carboxamide], the activity at 1 µM was 97%. Same read-out and setting: next, `Cc1nn(-c2cccc3nn(Cc4cc(F)cc(Cl)c4)cc23)c(C)c1C(N)=O` [Example 81, 1-[2-(3-chloro-5-fluorobenzyl)-2H-indazol-4-yl]-3,5-dimethyl-1H-pyrazole-4-carboxamide]: 102%; `Cc1nn(-c2cccc3nn(Cc4cccc(C(F)(F)F)c4)cc23)c(C)c1C(=O)NCCO` [Example 79, N-(2-hydroxyethyl)-3,5-dimethyl-1-[2-[3-(trifluoromethyl)benzyl]-2H-indazol-4-yl]-1H-pyrazole-4-carboxamide]: 102%. Same read-out and setting: the result for `Cc1nn(-c2ccc(F)c3cc(Cc4cc(F)cc(Cl)c4)sc23)c(C)c1C(=O)NCCO` [Example 60, 1-[2-(3-chloro-5-fluorobenzyl)-4-fluoro-1-benzothiophen-7-yl]-N-(2-hydroxyethyl)-3,5-dimethyl-1H-pyrazole-4-carboxamide] reads 99%; that for `NC(=O)c1cn(-c2cccc3cc(Cc4cccc(C(F)(F)F)c4)sc23)nc1C(F)(F)F` [Example 22, 3-(trifluoromethyl)-1-[2-[3-(trifluoromethyl)benzyl]benzothiophen-7-yl]-1H-pyrazole-4-carboxamide], 93%; that for `NC(=O)CNC(=O)c1cn(-c2cccc3cc(Cc4cccc(C(F)(F)F)c4)sc23)nc1C1CC1` [Example 28, N-(2-amino-2-oxoethyl)-3-cyclopropyl-1-[2-[3-(trifluoromethyl)benzyl]-1-benzothiophen-7-yl]-1H-pyrazole-4-carboxamide], 95%. On the same count and under the same terms, next, `Cc1nn(-c2cccc3sc(Cc4cc(F)cc(Cl)c4)cc23)c(C)c1C(N)=O` [Example 109, 1-[2-(3-chloro-5-fluorobenzyl)-1-benzothiophen-4-yl]-3,5-dimethyl-1H-pyrazole-4-carboxamide]: 89%; `COc1cc(Cc2cc3cccc(-n4nc(C)c(C(=O)NCC(N)=O)c4C)c3s2)ccc1F` [Example 96, N-(2-amino-2-oxoethyl)-1-[2-(4-fluoro-3-methoxybenzyl)-1-benzothiophen-7-yl]-3,5-dimethyl-1H-pyrazole-4-carboxamide]: 84%. Take `Cc1nn(-c2cccc3cc(Cc4cccc(C(F)(F)F)c4)sc23)c(C)c1C(=O)NCC(N)=O` [Example 53, N-(2-amino-2-oxoethyl)-3,5-dimethyl-1-[2-[3-(trifluoromethyl)benzyl]-1-benzothiophen-7-yl]-1H-pyrazole-4-carboxamide]: the activity at 1 µM was 102%.

The assay is the same for the next values; noted with them: concentration of the test compound at which it shows 50% activity; human GPR52-expressing CHO(dhfr-) cells; read-out: GPR52 agonist activity EC50.
Consider `Cc1nc(-c2cccc3cc(Cc4cccc(C(F)(F)F)c4)sc23)oc1C(=O)NCC(N)=O` [Example 11, N-(2-amino-2-oxoethyl)-4-methyl-2-[2-[3-(trifluoromethyl)benzyl]-1-benzothiophen-7-yl]-1,3-oxazole-5-carboxamide], for which the EC50 stood at 0.29 µM.
